Measured values: US8871680B2, “Herbicidal compositions comprising 4-amino-3-chloro-5-fluoro-6-(4-chloro-2-fluoro-3-methoxyphenyl) pyridine-2-carboxylic acid or a derivative thereof and a di-methoxy-pyrimidine and derivatives thereof” (Dow AgroSciences LLC, priority 2012, dated 2014)

Columns and labels:
[1] = test system: ECHOR; test: In-water applied weed control, transplanted paddy rice (greenhouse); format: in vivo, Echinochloa oryzoides (Ard.) Fritsch; details: 42.2 gae/ha
Experimental: (§1) Weed seeds or nutlets of the desired test plant species were planted in puddled soil (mud) prepared by mixing a shredded, non-sterilized mineral soil (50.5 percent silt, 25.5 percent clay, and 24 percent sand, with a pH of about 7.6 and an organic matter content of about 2.9 percent) and water at a 1:1 volumetric ratio. The prepared mud was dispensed in 365 mL aliquots into 16-ounce (oz.) non-perforated plastic pots with a surface area of 86.59 square centimeters (cm^2) leaving a headspace of 3 centimeters (cm) in each pot. Mud was allowed to dry overnight prior to planting or transplanting. Rice seeds were planted in Sun Gro MetroMix® 306 planting mixture, which typically has a pH of 6.0 to 6.8 and an organic matter content of about 30 percent, in plastic plug trays. Seedlings at the second or third leaf stage of growth were transplanted into 860 mL of mud contained in 32-oz. non-perforated plastic pots with a surface area of 86.59 cm^2 4 days prior to herbicide application. The paddy was created by filling the headspace of the pots with 2.5 to 3 cm of water. When required to ensure good germination and healthy plants, a fungicide treatment and/or other chemical or physical treatment was applied. The plants were grown for 4-22 days in a greenhouse with an approximate 14 hr photoperiod which was maintained at about 29′C during the day and 26° C. during the night. Nutrients were added as Osmocote® (19:6:12, N:P:K+minor nutrients) at 2 g per 16-oz. pot and 4 g per 32-oz. pot. Water was added on a regular basis to maintain the paddy flood, and supplemental lighting was provided with overhead metal halide 1000-Watt lamps as necessary. The plants were employed for testing when they reached the first through fourth true leaf stage.
(§2) Treatments consisted of the acid or esters of 4-amino-3-chloro-5-fluoro-6-(4-chloro-2-fluoro-3-methoxy-phenyl)pyridine-2-carboxylic acid (compound A) each formulated as an SC and various herbicidal components alone and in combination. Forms of compound A were applied on an acid equivalent basis.
(§3) Other herbicidal components were applied on an active ingredient basis and included the dimethoxy-pyrimidine acid acetolactate synthase (ALS)-inhibiting herbicides bispyribac-sodium formulated as Regiment® 80 WP, pyriminobac-methyl formulated as Hie Clean®, and pyriftalid (technical grade material).
(§4) Treatment requirements for each compound or herbicidal component were calculated based upon the rates being tested, the concentration of active ingredient or acid equivalent in the formulation, an application volume of 2 mL per component per pot, and an application area of 86.59 cm^2 per pot.
(§5) For formulated compounds, a measured amount was placed in an individual 100 or 200 mL glass vial and was dissolved in a volume of 1.25% (v/v) Agri-Dex® crop oil concentrate to obtain application solutions.
(§6) For technical grade compounds, a weighed amount was placed in an individual 100 to 200 mL glass vial and was dissolved in a volume of acetone to obtain concentrated stock solutions. […] The concentrated stock solutions obtained were diluted with an equivalent volume of an aqueous mixture containing 2.5% (v/v) crop oil concentrate so that the final application solutions contained 1.25% (v/v) crop oil concentrate.
(§7) Applications were made by injecting with a pipetter appropriate amounts of the application solutions, individually and sequentially, into the aqueous layer of the paddy.
(§8) Control plants were treated in the same manner with the solvent blank. […]

[2] = test system: BRAPP; test: Postemergence foliar-applied weed control, direct seeded rice (greenhouse); format: in vivo, Brachiaria platyphylla (Griseb.) Nash; details: 4.38 gae/ha
Text: Seeds or nutlets of the desired test plant species were planted in a soil matrix prepared by mixing a loam or sandy loam soil (e.g., 28.6 percent silt, 18.8 percent clay, and 52.6 percent sand, with a pH of about 5.8 and an organic matter content of about 1.8 percent) and calcareous grit in an 80 to 20 ratio. The soil matrix was contained in plastic pots with a volume of 1 quart and a surface area of 83.6 square centimeters (cm^2). When required to ensure good germination and healthy plants, a fungicide treatment and/or other chemical or physical treatment was applied. The plants were grown for 8-22 days in a greenhouse with an approximate 14 hr photoperiod which was maintained at about 29° C. during the day and 26° C. during the night. Nutrients (Peters Excel® 15-5-15 5-Ca 2-Mg and iron chelate) were applied in the irrigation solution as needed and water was added on a regular basis. Supplemental lighting was provided with overhead metal halide 1000-Watt lamps as necessary. The plants were employed for testing when they reached the first through fourth true leaf stage. […]
(§9) Treatment requirements were calculated based upon the rates being tested, the concentration of active ingredient or acid equivalent in the formulation, and a 12 mL application volume at a rate of 187 L/ha.
For treatments comprised of formulated compounds, measured amounts of compounds were placed individually in 25 mL glass vials and diluted in a volume of 1.25% (v/v) Agri-Dex® crop oil concentrated to obtain 12× stock solutions. […]
(§10) For treatments comprised of formulated and technical compounds, weighed amounts of the technical materials were placed individually in 25 mL glass vials and dissolved in a volume of 97:3 v/v acetone/DMSO to obtain 12× stock solutions, and measured amounts of the formulated compounds were placed individually in 25 mL glass vials and diluted in a volume of 1.5% (v/v) crop oil concentrate or water to obtain 12× stock solutions. […]

[3] = test system: DIGSA; test: as above; format: in vivo, Digitaria sanguinalis (L.) Scop.
Text: (§11) Seeds or nutlets of the desired test plant species were planted in a soil matrix prepared by mixing a loam or sandy loam soil (e.g., 28.6 percent silt, 18.8 percent clay, and 52.6 percent sand, with a pH of about 5.8 and an organic matter content of about 1.8 percent) and calcareous grit in an 80 to 20 ratio. The soil matrix was contained in plastic pots with a volume of 1 quart and a surface area of 83.6 square centimeters (cm^2). When required to ensure good germination and healthy plants, a fungicide treatment and/or other chemical or physical treatment was applied. The plants were grown for 8-22 days in a greenhouse with an approximate 14 hr photoperiod which was maintained at about 29° C. during the day and 26° C. during the night. Nutrients (Peters Excel® 15-5-15 5-Ca 2-Mg and iron chelate) were applied in the irrigation solution as needed and water was added on a regular basis. Supplemental lighting was provided with overhead metal halide 1000-Watt lamps as necessary. The plants were employed for testing when they reached the first through fourth true leaf stage.
(§12) Treatments consisted of the acid or esters of 4-amino-3-chloro-5-fluoro-6-(4-chloro-2-fluoro-3-methoxy-phenyl)pyridine-2-carboxylic acid (Compound A), each formulated as an SC (suspension concentrate), and various herbicidal components alone and in combination. Forms of compound A were applied on an acid equivalent basis.
(§13) Other herbicidal components were applied on an active ingredient basis and included the dimethoxy-pyrimidine acid acetolactate synthase (ALS)-inhibiting herbicides bispyribac-sodium formulated as Regiment® 80WP, pyribenzoxim (technical grade material), pyriminobac-methyl formulated as Hie-Clean® 1.2% GR dissolved in water, and pyriftalid (technical grade material).
as §9
(§14) For treatments comprised of formulated compounds, measured amounts of compounds were placed individually in 25 mL glass vials and diluted in a volume of 1.25% (v/v) Agri-Dex® crop oil concentrated to obtain 12× stock solutions. […] Application solutions were prepared by adding an appropriate amount of each stock solution (e.g., 1 mL) and diluted to the appropriate final concentrations with the addition of 10 mL of an aqueous mixture of 1.25% (v/v) crop oil concentrate so that the final spray solutions contained 1.25+/−0.005% (v/v) crop oil concentrate.
For treatments comprised of technical compounds, weighed amounts can be placed individually in 25 mL glass vials and dissolved in a volume of 97:3 v/v acetone/DMSO to obtain 12× stock solutions. […] Application solutions can be prepared by adding an appropriate amount of each stock solution (e.g., 1 mL) and diluted to the appropriate final concentrations with the addition of 10 mL of an aqueous mixture of 1.5% (v/v) crop oil concentrate so that the final spray solutions contain 1.25% (v/v) crop oil concentrate. […]
as §10

[4] = test system: FIMMI; test: In-water applied weed control, transplanted paddy rice (greenhouse); format: in vivo, Fimbristylis miliacea (L.) Vahl
Experimental: as §1, §2, §3, §4, §5, §6, §7
(§15) Control plants were treated in the same manner with the solvent blank. Applications were made so that all treated plant material received the same concentrations of acetone and crop oil concentrate.
(§16) The treated plants and control plants were placed in a greenhouse as described above and water was added as needed to maintain a paddy flood. […]

[5] = test system: ECHCG; test: as above; format: in vivo, Echinochloa crusgalli (L.) Beauv.
Experimental: as §1, §2, §3, §4, §5, §6, §7, §15, §16

[6] = test system: SCPMA; test: as above; format: in vivo, Bolboschoenus maritimus (L.) Palla
Experimental: as §1, §2, §3, §4, §5, §6, §7, §15, §16

[7] = test system: ECHCO; test: as above; format: in vivo, Echinochloa colona (L.) Link
Experimental: as §1, with “Water was added on a regular basis to maintain the paddy flood, and supplemental lighting was provided with overhead metal halide 1000-Watt lamps as necessary. The plants were employed for testing when they reached the first through fourth true leaf stage.” left out
as §4
For formulated compounds, a measured amount was placed in an individual 100 or 200 mL glass vial and was dissolved in a volume of 1.25% (v/v) Agri-Dex® crop oil concentrate to obtain application solutions. […]

[8] = test system: LEFCH; test: as above; format: in vivo, Leptochloa chinensis (L.) Nees
Experimental: as §1, §2, §3, §4, §5, §6, §7, §8

[9] = test system: IPOHE; test: Postemergence foliar-applied weed control, direct seeded rice (greenhouse); format: in vivo, Ipomoea hederacea Jacq.
Text: as §11, §12, §13, §9, §14
For treatments comprised of technical compounds, weighed amounts can be placed individually in 25 mL glass vials and dissolved in a volume of 97:3 v/v acetone/DMSO to obtain 12× stock solutions. […] Application solutions can be prepared by adding an appropriate amount of each stock solution (e.g., 1 mL) and diluted to the appropriate final concentrations with the addition of 10 mL of an aqueous mixture of 1.5% (v/v) crop oil concentrate so that the final spray solutions contain 1.25% (v/v) crop oil concentrate. When technical materials are used, the concentrated stock solutions can be added to the spray solutions so that the final acetone and DMSO concentrations of the application solutions are 16.2% and 0.5%, respectively.
as §10

[10] = test system: CYPRO; test: In-water applied weed control, transplanted paddy rice (greenhouse); format: in vivo, Cyperus rotundus L.
Experimental: as §1, §2, §3, §4, §5, §6, §7, §15, §16

COc1c(Cl)ccc(-c2nc(C(=O)O)c(Cl)c(N)c2F)c1F [Compound A Acid, 4-amino-3-chloro-6-(4-chloro-2-fluoro-3-methoxyphenyl)-5-fluoropyridine-2-carboxylic acid]
Visual Weed Control (%)-20 DAA ECHOR Obs [1]: 18%
Visual Weed Control (%)-22 DAA BRAPP Obs [2]: 45%
Visual Weed Control (%)-24 DAA DIGSA Obs ([3]; 4.38 gae/ha): 20%
Visual Weed Control (%)-24 DAA DIGSA Obs ([3]; 8.75 gae/ha): 25%
Visual Weed Control (%)-24 DAA DIGSA Obs ([3]; 17.5 gae/ha): 25%
Visual Weed Control (%)-21 DAA FIMMI Obs ([4]; 8.75 gae/ha): 50%
Visual Weed Control (%)-21 DAA FIMMI Obs ([4]; 17.5 gae/ha): 85%
Visual Weed Control (%)-21 DAA FIMMI Obs ([4]; 35 gae/ha): 85%
Visual Weed Control (%) - 20 DAA ECHCG Obs ([5]; 8.75 gae/ha): 0%
Visual Weed Control (%) - 20 DAA ECHCG Obs ([5]; 17.5 gae/ha): 35%
Visual Weed Control (%) - 20 DAA ECHCG Obs ([5]; 35 gae/ha): 55%
Visual Weed Control (%) - 20 DAA ECHCG Obs ([5]; 42.2 gae/ha): 18%
Visual Weed Control (%)-21 DAA SCPMA Obs ([6]; 8.75 gae/ha): 0%
Visual Weed Control (%)-21 DAA SCPMA Obs ([6]; 17.5 gae/ha): 0%
Visual Weed Control (%)-20 DAA SCPMA Obs ([6]; 35 gae/ha): 0%
Visual Weed Control (%)-21 DAA SCPMA Obs ([6]; 35 gae/ha): 0%
Visual Weed Control (%)-20 DAA SCPMA Obs ([6]; 42.2 gae/ha): 0%
Visual Weed Control (%)-20 DAA SCPMA Obs ([6]; 70 gae/ha): 0%
Visual Weed Control (%)-21 DAA ECHCO Obs ([7]; 8.75 gae/ha): 0%
Visual Weed Control (%)-21 DAA ECHCO Obs ([7]; 17.5 gae/ha): 20%
Visual Weed Control (%)-21 DAA LEFCH Obs ([8]; 8.75 gae/ha): 0%
Visual Weed Control (%)-21 DAA LEFCH Obs ([8]; 17.5 gae/ha): 0%
Visual Weed Control (%)-20 DAA LEFCH Obs ([8]; 42.2 gae/ha): 15%
Visual Weed Control (%)-24 DAA IPOHE Obs ([9]; 4.38 gae/ha): 10%
Visual Weed Control (%)-24 DAA IPOHE Obs ([9]; 8.75 gae/ha): 10%
Visual Weed Control (%)-24 DAA IPOHE Obs ([9]; 17.5 gae/ha): 30%
Visual Weed Control (%)-24 DAA IPOHE Obs ([9]; 17.5 gae/ha, second part of Table 3): 25%
Visual Weed Control (%)-24 DAA IPOHE Obs ([9]; 35 gae/ha, second part of Table 3): 48%
Visual Weed Control (%)-21 DAA CYPRO Obs ([10]; 8.75 gae/ha): 30%
Visual Weed Control (%)-21 DAA CYPRO Obs ([10]; 17.5 gae/ha): 40%
Visual Weed Control (%)-21 DAA CYPRO Obs ([10]; 35 gae/ha): 70%
